From patent publication US10669272B2, “Substituted naphthyridinone compounds useful as T cell activators” (BRISTOL-MYERS SQUIBB COMPANY, priority 2018, dated 2020)
Like-named read-outs stand apart in the source and are kept apart here.

How the values were obtained:
Human venous whole blood = experiment: Human whole blood IFN-γ assay; type: cell-based; details: human whole blood, read-out: INFg Whole Blood Normalized Agonist EC50;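 note: blood from healthy donors exposed to compound for 1 h before stimulation with anti-CD3 and anti-CD28 at 1 µg/mL each, IFN-γ quantified in supernatant by AlphaLISA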
naïve human CD8 T cells = experiment: Human CD8 T cells IFN-γ assay; type: cell-based; details: read-out: HuCD8 INFG Normalized EC50;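 note: Naïve human CD8 T cells stimulated with plate-bound anti-CD3 and soluble anti-CD28, IFN-γ in supernatant quantified by AlphaLISA and converted to pg/mL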
human DGKα = biological target: T1, human DGKα (Homo sapiens, UniProt P23743); experiment: DGKα LIPGLO assay (extruded liposome substrate), in vitro DGK inhibition; type: biochemical; details: read-out: DGKa LIPGLO IC50
T1 construct: TVMV protease cleavage site (C); Hexa-His (C); made in house; host or cells: Sf9 insect cells (baculovirus, Bac-to-Bac)

human DGKζ = biological target: T2, human DGKζ (Homo sapiens, UniProt Q13574); experiment: DGKζ LIPGLO assay (extruded liposome substrate), in vitro DGK inhibition; type: biochemical; details: read-out: DGKz LIPGLO IC50
T2 construct: TVMV protease cleavage site (C); Hexa-His (C); made in house; host or cells: Sf9 insect cells (baculovirus, Bac-to-Bac)

[1] = normalized to 3 μM reference compound with anti-CD3 plus anti-CD28 as 100% activation
[2] = Homo sapiens, 24 h, normalized to 3 μM reference compound with anti-CD3 plus anti-CD28 as 100% activation
[3] = Homo sapiens, T-cell, 20 h, normalized to 3 μM reference compound with anti-CD3 plus anti-CD28 as 100% activation
[4] = naïve human CD8 T cells, anti-CD3 plus anti-CD28, 3 μM reference compound = 100% activation
[5] = anti-CD3 plus anti-CD28, 24 hours, 3 μM reference compound = 100% activation
[6] = Homo sapiens, T-cell, 20 h, naïve human CD8 T cells, anti-CD3 plus anti-CD28, 3 μM reference compound = 100% activation

T1 sequence (P23743 with tags, fused parts or gaps): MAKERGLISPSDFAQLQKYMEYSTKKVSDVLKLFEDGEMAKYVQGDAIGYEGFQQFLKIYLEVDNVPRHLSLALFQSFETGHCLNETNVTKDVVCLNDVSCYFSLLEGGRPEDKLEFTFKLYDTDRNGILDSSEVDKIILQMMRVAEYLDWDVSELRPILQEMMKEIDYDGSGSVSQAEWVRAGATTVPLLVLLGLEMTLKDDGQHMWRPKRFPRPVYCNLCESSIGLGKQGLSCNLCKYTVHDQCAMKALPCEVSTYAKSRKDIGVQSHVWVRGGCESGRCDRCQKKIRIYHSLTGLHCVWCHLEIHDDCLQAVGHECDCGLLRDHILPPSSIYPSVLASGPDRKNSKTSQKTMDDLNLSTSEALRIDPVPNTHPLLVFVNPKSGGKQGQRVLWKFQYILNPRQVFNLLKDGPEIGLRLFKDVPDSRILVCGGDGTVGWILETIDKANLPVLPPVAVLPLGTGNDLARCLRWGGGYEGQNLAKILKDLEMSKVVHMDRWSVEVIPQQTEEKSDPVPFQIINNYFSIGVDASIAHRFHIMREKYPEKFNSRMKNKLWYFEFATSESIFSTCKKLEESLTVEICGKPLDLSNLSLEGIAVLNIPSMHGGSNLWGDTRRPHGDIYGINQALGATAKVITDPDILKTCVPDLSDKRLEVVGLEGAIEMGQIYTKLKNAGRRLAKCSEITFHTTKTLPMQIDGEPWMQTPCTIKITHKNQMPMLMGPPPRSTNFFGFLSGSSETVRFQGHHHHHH
T2 sequence (Q13574 with tags, fused parts or gaps isoform Q13574-4): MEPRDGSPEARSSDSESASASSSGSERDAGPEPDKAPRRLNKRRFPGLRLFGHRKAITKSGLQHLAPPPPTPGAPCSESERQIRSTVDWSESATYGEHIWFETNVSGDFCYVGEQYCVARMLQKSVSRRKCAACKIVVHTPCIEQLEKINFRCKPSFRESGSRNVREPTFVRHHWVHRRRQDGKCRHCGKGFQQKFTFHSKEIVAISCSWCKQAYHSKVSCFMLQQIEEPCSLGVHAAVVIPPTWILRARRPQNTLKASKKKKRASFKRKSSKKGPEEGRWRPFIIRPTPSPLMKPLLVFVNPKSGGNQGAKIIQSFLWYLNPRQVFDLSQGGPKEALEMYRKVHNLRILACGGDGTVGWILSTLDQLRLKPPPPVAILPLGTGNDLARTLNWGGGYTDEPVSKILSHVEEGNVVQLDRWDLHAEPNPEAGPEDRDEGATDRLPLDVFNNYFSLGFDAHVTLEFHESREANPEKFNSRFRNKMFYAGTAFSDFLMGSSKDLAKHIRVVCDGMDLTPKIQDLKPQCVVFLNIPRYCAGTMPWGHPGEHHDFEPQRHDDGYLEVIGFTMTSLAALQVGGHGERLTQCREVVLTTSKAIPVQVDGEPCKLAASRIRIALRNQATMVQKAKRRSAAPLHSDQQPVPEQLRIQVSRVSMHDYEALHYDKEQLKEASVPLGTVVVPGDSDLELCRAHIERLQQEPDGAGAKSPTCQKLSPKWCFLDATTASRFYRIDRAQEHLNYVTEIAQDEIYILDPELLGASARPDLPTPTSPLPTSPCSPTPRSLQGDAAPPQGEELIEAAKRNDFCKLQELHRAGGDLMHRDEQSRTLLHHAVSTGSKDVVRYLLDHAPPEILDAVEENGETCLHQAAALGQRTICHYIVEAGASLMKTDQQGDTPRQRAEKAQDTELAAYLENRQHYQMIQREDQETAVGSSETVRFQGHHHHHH

| IC50 (human DGKα; liposome (LIPGLO) assay) [nM] | IC50 (human DGKζ; liposome (LIPGLO) assay) [nM] | SMILES | EC50 (Human venous whole blood; [1]) [nM] | EC50 (naïve human CD8 T cells; [1]) [nM] | EC50 (Human venous whole blood; [2]) [nM] | EC50 (naïve human CD8 T cells; [3]) [nM] | other results |
| --- | --- | --- | --- | --- | --- | --- | --- |
| 640 | 1300 | CCc1ccc(C(c2cccc(F)c2)N2C[C@H](C)N(c3cc(=O)n(C)c4ccc(C#N)nc34)C[C@H]2C)nc1 (single isomer, unassigned) [Example 351] | 89 | 31 |  |  |  |
| 77 | 850 | CC[C@H]1CN(C(c2ccc(F)cc2)c2ncccc2F)[C@H](CC)CN1c1cc(=O)n(C)c2ccc(C#N)nc12 (single isomer, unassigned) [Example 1038] | 280 | 21 |  |  |  |
| 6500 | 740 | Cc1ccc(C(c2ccc(C)c(Cl)c2)N2C[C@H](C)N(c3cc(=O)n(C)c4ccc(C#N)nc34)C[C@H]2C)nc1 (single isomer, unassigned) [Example 373] |  |  | 320 | 180 |  |
| 120 | 2600 | C[C@@H]1CN(c2cc(=O)n(C)c3ccc(C#N)nc23)[C@@H](C)CN1C(c1ccc(F)cc1)c1cocn1 (single isomer, unassigned) [Example 710] | 550 |  |  | 22 |  |
| 64 | 340 | CC[C@H]1CN(C(c2ccc(Cl)cc2)c2ccc(F)cn2)[C@H](CC)CN1c1cc(=O)n(C)c2ccc(C#N)nc12 (single isomer, unassigned) [Example 1034] | 230 | 17 |  |  |  |
| 150 | 400 | Cc1ccc(C(c2ccc(Cl)cc2)N2C[C@H](C)N(c3cc(=O)n(C)c4ccc(C#N)nc34)C[C@H]2C)nc1 (single isomer, unassigned) [Example 363] | 130 |  |  | 99 |  |
| 2500 | 440 | COC[C@@H]1CN(c2cc(=O)n(C)c3ccc(C#N)nc23)[C@@H](C)CN1C(c1ccc(C)cc1)c1ccc(C)cc1 [Example 1156] |  |  | 340 | 19 |  |

Continued, compound first:

| SMILES | IC50 (human DGKα; liposome (LIPGLO) assay) [nM] | IC50 (human DGKζ; liposome (LIPGLO) assay) [nM] | EC50 (Human venous whole blood; [1]) [nM] | EC50 (naïve human CD8 T cells; [1]) [nM] | EC50 (Human venous whole blood; [2]) [nM] | EC50 (naïve human CD8 T cells; [3]) [nM] | other results |
| --- | --- | --- | --- | --- | --- | --- | --- |
| C[C@@H]1CN(c2cc(=O)n(C)c3ccc(C#N)nc23)[C@@H](C)CN1C(c1ccc(F)cc1)c1ccc(C(F)(F)F)cc1 (stereo partly drawn) [Example 294, 8-[(2S,5R)-4-[(4-fluorophenyl)[4-(trifluoromethyl)phenyl]methyl]-2,5-dimethylpiperazin-1-yl]-5-methyl-6-oxo-5,6-dihydro-1,5-naphthyridine-2-carbonitrile] | 190 | 330 |  |  | 560 | 20 |  |
| COC(=O)C1CN(C(c2ccc(F)cc2)c2ccc(F)cc2)CCN1c1c(C#N)c(=O)n(C)c2ccc(Br)nc12 (centres unmarked) [Example 115, Methyl 4-(bis(4-fluorophenyl)methyl)-1-(6-bromo-3-cyano-1-methyl-2-oxo-1,2-dihydro-1,5-naphthyridin-4-yl)piperazine-2-carboxylate] | 1000 | 8800 |  |  | 2000 | 390 |  |
| C[C@@H]1CN(c2cc(=O)n(C)c3ccc(C#N)nc23)[C@@H](C)CN1C(c1ccccc1)c1cccc(F)c1F (stereo partly drawn) [Example 276, 8-[(2S,5R)-4-[(2,3-difluorophenyl)(phenyl)methyl]-2,5-dimethylpiperazin-1-yl]-5-methyl-6-oxo-5,6-dihydro-1,5-naphthyridine-2-carbonitrile] | 1200 | 1000 |  |  | 2400 | 180 |  |
| CCOc1cc(F)ccc1C(c1ccc(F)cc1)N1C[C@H](C)N(c2cc(=O)n(C)c3ccc(C#N)nc23)C[C@H]1C (single isomer, unassigned) [Example 230] | 26000 | 490 | 5300 | 370 |  |  |  |
| C[C@@H]1CN(c2cc(=O)n(C)c3ccc(C#N)nc23)[C@@H](C)CN1Cc1c(F)cccc1C#N [Example 269, 8-[(2S,5R)-4-[(2-cyano-6-fluorophenyl)methyl]-2,5-dimethylpiperazin-1-yl]-5-methyl-6-oxo-5,6-dihydro-1,5-naphthyridine-2-carbonitrile] | 78000 | 240000 |  |  | 8800 | 1200 |  |
| CCOc1ncccc1C(c1ccc(F)cc1)N1C[C@H](C)N(c2cc(=O)n(C)c3ccc(C#N)nc23)C[C@H]1C (single isomer, unassigned) [Example 206] | 24000 | 440 | 1400 | 39 |  |  |  |
| Cc1ccc(C(c2cccc(F)c2)N2C[C@H](C)N(c3cc(=O)n(C)c4ccc(C#N)nc34)C[C@H]2C)nc1 (single isomer, unassigned) [Example 216] | 180 | 210 | 130 | 74 |  |  |  |
| CCc1cc(F)ccc1C(c1ccc(Cl)cc1)N1C[C@H](C)N(c2cc(=O)n(C)c3ccc(OC)nc23)C[C@H]1C (single isomer, unassigned) [Example 232] | 240000 | 1700 | 20000 | 10000 |  |  |  |
| C[C@@H]1CN(c2cc(=O)n(C)c3ccc(C#N)nc23)[C@@H](C)CN1Cc1c(F)ccc(F)c1Cl [Example 266, 8-[(2S,5R)-4-[(2-chloro-3,6-difluorophenyl)methyl]-2,5-dimethylpiperazin-1-yl]-5-methyl-6-oxo-5,6-dihydro-1,5-naphthyridine-2-carbonitrile] | 1400 | 2100 |  |  | 2800 | 1100 |  |
| C[C@@H]1CN(c2cc(=O)n(C)c3ccc(C#N)nc23)[C@@H](C)CN1C(c1ccc(F)cc1)c1cccc(F)c1 (single isomer, unassigned) [Example 249] | 820 | 440 |  |  | 690 | 32 |  |
| C[C@@H]1CN(c2cc(=O)n(C)c3ccc(C#N)nc23)[C@@H](C)CN1C(c1cccc(Cl)c1)c1cccc(Cl)c1 [Example 257, 8-[(2S,5R)-4-[bis(3-chlorophenyl)methyl]-2,5-dimethylpiperazin-1-yl]-5-methyl-6-oxo-5,6-dihydro-1,5-naphthyridine-2-carbonitrile] | 25000 | 830 |  |  | 6200 | 810 |  |
| COc1cc(F)ccc1C(N1C[C@H](C)N(c2cc(=O)n(C)c3ccc(C#N)nc23)C[C@H]1C)C(C)(C)C (single isomer, unassigned) [Example 185] | 4400 | 210 | 2000 |  |  | 10000 |  |
| Cn1c(=O)cc(N2CCN(C(c3ccc(F)cc3)c3ccc(F)cc3)C(C(=O)NC3CC3)C2)c2nc(C#N)ccc21 (single isomer, unassigned) [Example 47, 1-(bis(4-fluorophenyl)methyl)-4-(6-cyano-1-methyl-2-oxo-1,2-dihydro-1,5-naphthyridin-4-yl)-N-cyclopropylpiperazine-2-carboxamide] | 260000 | 5200 |  | 10000 | 5000 |  |  |
| C[C@@H]1CN(c2cc(=O)n(C)c3ccc(C#N)nc23)[C@@H](C)CN1C(c1ccccc1F)c1ccccc1F [Example 258, 8-[(2S,5R)-4-[bis(2-fluorophenyl)methyl]-2,5-dimethylpiperazin-1-yl]-5-methyl-6-oxo-5,6-dihydro-1,5-naphthyridine-2-carbonitrile] | 240 | 820 |  |  | 1400 | 56 |  |
| C[C@@H]1CN(c2cc(=O)n(C)c3ccc(C#N)nc23)[C@@H](C)CN1C(c1ccc(F)cc1)c1nc(-c2ccc(F)cc2)no1 (single isomer, unassigned) [Example 741] |  |  |  |  |  |  | EC50 (Human venous whole blood; Homo sapiens, 24 h, anti-CD3 plus anti-CD28, 24 hours, 3 μM reference compound = 100% activation): 210 nM; EC50 (naïve human CD8 T cells; [4]): 3.7 nM; IC50 (human DGKα; DGKα liposome (LIPGLO) assay): 870 nM; IC50 (human DGKζ; DGKζ liposome (LIPGLO) assay): 1400 nM |
| Cc1cccc(C(c2ccc(F)cc2)N2CCN(c3c(C#N)c(=O)n(C)c4ccc(C#N)nc34)C[C@H]2C)n1 (single isomer, unassigned) [Example 906] |  |  |  |  |  |  | EC50 (Human venous whole blood; [5]): 810 nM; EC50 (naïve human CD8 T cells; [6]): 67 nM; IC50 (human DGKα; DGKα liposome (LIPGLO) assay): 1000 nM; IC50 (human DGKζ; DGKζ liposome (LIPGLO) assay): 940 nM |
| Cc1ccc(C(c2ccc(F)cc2)N2CCN(c3c(C#N)c(=O)n(C)c4ccc(C#N)nc34)C[C@H]2C)nc1 (single isomer, unassigned) [Example 915] |  |  |  |  |  |  | EC50 (Human venous whole blood; [5]): 550 nM; EC50 (naïve human CD8 T cells; [6]): 100 nM; IC50 (human DGKα; DGKα liposome (LIPGLO) assay): 740 nM; IC50 (human DGKζ; DGKζ liposome (LIPGLO) assay): 1300 nM |
| COc1cc(CN2C[C@H](C)N(c3cc(=O)n(C)c4ccc(C#N)nc34)C[C@H]2C)cc(C(F)(F)F)n1 [Example 280, 8-[(2S,5R)-4-{[2-methoxy-6-(trifluoromethyl)pyridin-4-yl]methyl}-2,5-dimethylpiperazin-1-yl]-5-methyl-6-oxo-5,6-dihydro-1,5-naphthyridine-2-carbonitrile] | 7900 | 7300 |  |  | 7700 | 680 |  |
| C[C@@H]1CN(c2cc(=O)n(C)c3ccc(C#N)nc23)[C@@H](C)CN1C(c1ccc(F)cc1)c1nc(-c2ccc(F)cc2)no1 (single isomer, unassigned) [Example 742] |  |  |  |  |  |  | EC50 (Human venous whole blood; [5]): 140 nM; EC50 (naïve human CD8 T cells; [4]): 1.5 nM; IC50 (human DGKα; DGKα liposome (LIPGLO) assay): 150 nM; IC50 (human DGKζ; DGKζ liposome (LIPGLO) assay): 790 nM |
